{"source": "patent US20230257715A1", "about": "“COMPOSITIONS AND METHODS FOR REGULATING ENTEROENDOCRINE CELL DIFFERENTIATION AND USES THEREOF” (The Children's Medical Center Corporation, priority 2020, published 2023)", "test_system": "human duodenal enteroids", "experiment": "Single cell RNA sequencing of enteroids (cell type proportions, module score, scVelo trajectory)", "assay_type": "cell-based", "experimental": "To better assess the transcriptomic distinctions between cells from the various culture conditions, single cell RNA sequencing (scRNA-seq) on the 10× platform combined with sample hashing was utilized, allowing the assessment of the reproducibility of the findings from distinct donors. Enteroids from three individuals were grown in G2D12, RSP or AS, for a total of nine samples. After the 14-day protocol, enteroids were isolated and processed into a single-cell suspension and their condition and patient source were marked using Hashtag antibodies prior to pooling the samples together (Stoeckius, M. et al. Genome Biol 19, 224, doi:10.1186/s13059-018-1603-1 (2018).)^47. After labeling, cells were processed, and single-cell transcriptomes were generated.\nEnteroids were incubated in Cell Recovery solution for 40-60 minutes at 4° C. to remove the Matrigel® and then centrifuged at 500×g for 5 minutes at 4° C. To achieve single cell suspension, organoids were then incubated in 500 μL of TrypLE™ Express at 37° C. for 30 minutes and broken up by repeated pipetting using a bent P1000 pipette tip. Each sample was then diluted in 800 μL of 20% FBS in Advanced DMEM/F12, filtered through 37 μm mesh, and then centrifuged at 300×g for 10 minutes at 4° C. Dead cells were then removed using magnetic-activated cell sorting (MACS) separation following the manufacturer's protocol. Briefly, each sample was resuspended in 100 μL Dead Cell Removal MicroBeads (Miltenyi Biotec) and incubated at room temperature for 15 minutes. 400 μL of 1×Binding Buffer was then added to each sample, after which the samples were applied to prepared MACS columns placed in a MACS Separator. Flow-through containing live cells was collected. This was followed by washing the columns four times with 1× Binding Buffer, which were combined with the initial flow-through. These samples were then centrifuged at 800×g for 5 minutes at 4° C.\nSingle cells isolated after dead cell removal (see, Example 18) were labeled prior to sequencing with Totalseq™-B hashtag antibodies (Biolegend), targeted against CD298 and β2-microglobulin, per the manufacturer's protocol^47. Briefly, each of the nine samples (three separate differentiation conditions in three enteroid lines) were resuspended in 50 μL of Cell Staining Buffer (Biolegend) and blocked with […] of Human TruStain FcX^TM blocking reagent (Biolegend) for 10 minutes at 4° C. The supernatant was then removed, and each sample resuspended in 50 μL of Cell Staining Buffer containing […] of a unique Totalseq™-B hashtag antibody. Samples were incubated for 30 minutes at 4° C. and then washed three times in 3.5 mL of Cell Staining Buffer. The samples were then filtered through a 37 μm mesh, resuspended in 2% BSA in PBS at a concentration of 1500 cells/μL, and then pooled together. Of note, prior to the scRNA-seq experiment, antibody binding was verified using fluorophore-conjugated antibodies with the same binding specificity.\nA total of 180,000 cells as one pool were inputted across four channels, with a recovery rate of approximately 30,000 cells across all four channels. RNA libraries were prepared from single cells by the Single Cell Core at Harvard Medical School, Boston, Mass., using the 10× Chromium Single Cell 3′ Library Chip (V3.1) with dual indexed barcodes. Briefly, single cells were partitioned into Gel Beads in Emulsion (GEMs) by the Chromium Controller. […]", "key": {"[1]": {"conditions": "three enteroid lines, 14-day protocol"}}}
{"smiles": "CCn1cc(C(=O)O)c(=O)c2c(N)c(F)c(NC3CCCCC3)cc21", "note": "[AS, AS1842856]", "values": [{"measurement": "EE Cell Gene Module Score, effect size between culture conditions (Cohen's d)", "setting": "reference gene set from mouse EE cells", "result": "larger effect size than RSP"}, {"measurement": "proportion of EE cells (scRNA-seq)", "setting": "[1]", "result": 18, "unit": "%"}, {"measurement": "proportion of enterocytes (scRNA-seq)", "setting": "[1]", "result": 2.5, "unit": "%"}, {"measurement": "proportion of goblet cells (scRNA-seq)", "setting": "[1]", "result": 1.5, "unit": "%"}, {"measurement": "proportion of stem cells (scRNA-seq)", "setting": "[1]", "result": 42, "unit": "%"}, {"measurement": "differentiation trajectory (scVelo RNA velocity)", "setting": "vector field on UMAP", "result": "the majority of vectors moving towards the goblet cell cluster and then into the EE cluster"}]}
